The results in this text go back to patent US11957680B2, “Pyruvate kinase activators for use in treating blood disorders” (Agios Pharmaceuticals, Inc., priority 2017, dated 2024).

Assay [1] addresses T1, wild type PKR (Homo sapiens, UniProt P30613). Nature of the assay: PKR (wild type) enzyme AC50 assay, LDH/NADH-coupled, absorbance at 340 nm. Format: biochemical. As to conditions: for AC50: Table 2, enzyme assay, read-out: PKR WT AC50; for EC50: Table 4, AC50, enzyme assay, read-out: PKR WT. In a few lines:
(§1)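 Wild-type or mutant PKR (40-400 ng/well) was preincubated with compound for 60 min at room temperature in 100 mM KCl, 50 mM Tris pH 7.5, 5 mM MgCl2, 1 mM DTT, 0.03% BSA with PEP (0.1-0.5 mM), 180 μM NADH and 0.5 units LDH. ADP (0.2-1.65 mM) started the reaction, followed at 340 nm.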

The target of assay [2] is T1, wild type PKR. Nature of the assay: Cell based ATP assay in purified red blood cells (Cell-Titer-Glo). On the set-up: endogenous in cells; host or cells: purified red blood cells from healthy volunteers. Particulars: overnight at 37° C., ATP levels; for AC50 / Cell based ATP assay AC50: Table 2, RBCs; for EC50 / Cell based ATP assay: Table 4, AC50, RBCs. An outline of the steps: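 RBCs from healthy human donors' K2EDTA blood were leukocyte-depleted by filtration and resuspended in AGAM (PBS, 1% glucose, adenine, mannitol). Cells at 1×10^7 cells/mL were incubated overnight at 37 °C with serially diluted compound at 0.1% DMSO, and ATP was read by Cell-Titer-Glo luminescence.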

The next assay has as its target PKR K410E (Homo sapiens, UniProt P30613, K410E). Nature of the assay: PKR mutant assay (K410E), AC50, LDH/NADH-coupled, absorbance at 340 nm. Particulars: for AC50: Table 2, enzyme assay; for EC50: Table 4, AC50, enzyme assay. Format: biochemical. An outline of the steps:
as §1

For a further assay, the target named is PKR R510Q (Homo sapiens, UniProt P30613, R510Q). Nature of the assay: PKR mutant assay (R510Q), AC50, LDH/NADH-coupled, absorbance at 340 nm. Format: biochemical. As to conditions: for AC50: Table 2, enzyme assay, read-out: PK R510Q AC50; for EC50: Table 4, AC50, enzyme assay, read-out: PK R510Q. An outline of the steps:
as §1

Sequence of PKR K410E (P30613 whole entry K410E): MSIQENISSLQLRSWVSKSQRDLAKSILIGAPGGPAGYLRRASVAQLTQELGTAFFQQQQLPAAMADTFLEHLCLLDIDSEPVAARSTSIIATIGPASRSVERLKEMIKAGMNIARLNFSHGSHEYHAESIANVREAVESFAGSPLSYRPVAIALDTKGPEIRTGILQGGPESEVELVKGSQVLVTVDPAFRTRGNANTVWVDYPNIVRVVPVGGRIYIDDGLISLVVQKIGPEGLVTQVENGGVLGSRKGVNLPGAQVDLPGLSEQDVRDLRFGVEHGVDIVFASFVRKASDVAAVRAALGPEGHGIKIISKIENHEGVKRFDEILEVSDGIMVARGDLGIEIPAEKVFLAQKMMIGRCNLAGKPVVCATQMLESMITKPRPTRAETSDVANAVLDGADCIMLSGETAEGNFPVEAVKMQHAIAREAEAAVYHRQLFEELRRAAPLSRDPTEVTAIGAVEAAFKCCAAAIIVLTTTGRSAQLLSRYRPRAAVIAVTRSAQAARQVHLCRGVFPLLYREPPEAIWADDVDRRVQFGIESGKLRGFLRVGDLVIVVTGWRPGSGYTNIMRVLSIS
T1 sequence (P30613 whole entry): as the sequence (P30613 whole entry K410E) above, with E410K counted along it
Sequence of PKR R510Q (P30613 whole entry R510Q): as the sequence (P30613 whole entry K410E) above, with E410K, R510Q counted along it

In the case of `COc1cccc(Cc2nc3c(s2)c2cnn(Cc4cccc5[nH]ncc45)c(=O)c2n3C)n1` [Compound 169], the AC50 is < 300 nM at wild type PKR [1], ≤ 1000 nM on wild type PKR [2], < 300 nM at PKR K410E and < 300 nM on PKR R510Q.
As to `CCc1nc2c(s1)c1cnn(Cc3cccc(OC)c3)c(=O)c1n2C` [Compound 39], the AC50 on wild type PKR [1] was < 300 nM; at wild type PKR [2], > 1000 nM; on PKR K410E, < 300 nM; at PKR R510Q, < 300 nM.
Regarding `Cc1nc2c(s1)c1cnn(Cc3cccc(C(=O)O)c3)c(=O)c1n2C` [Compound 11], the AC50 on wild type PKR [1], on PKR K410E and on PKR R510Q was > 800 nM each time. The “Cell based ATP assay AC50” value on wild type PKR [2] is listed as “No Fit”.
With `CC(c1cc[nH]n1)c1nc2c(s1)c1cnn(Cc3cccc4[nH]ncc34)c(=O)c1n2C` (centres unmarked) [Compound 195], the EC50 is < 300 nM on wild type PKR [1], ≤ 1000 nM at wild type PKR [2], < 300 nM at PKR K410E and < 300 nM at PKR R510Q.
`CCOC(=O)c1cccc(Cn2ncc3c4sc(C)nc4n(C)c3c2=O)c1` [Compound 10]: the AC50 on wild type PKR [1], at PKR K410E and at PKR R510Q was > 800 nM throughout. Besides, the “Cell based ATP assay AC50” value at wild type PKR [2] is recorded as “No Fit”.
Turning to `Cn1cc(Cc2nc3c(s2)c2cnn(Cc4cccc(C(N)=O)c4)c(=O)c2n3C)cn1` [Compound 389], the EC50 on wild type PKR [1] is > 800 nM; at wild type PKR [2] it was > 1000 nM; at PKR K410E, > 800 nM; at PKR R510Q, 301 to 800 nM.
Regarding `CSc1nc2c(s1)c1cnn(Cc3cccc(S(N)(=O)=O)c3)c(=O)c1n2C` [Compound 110], the AC50 at wild type PKR [1], at PKR K410E and at PKR R510Q was > 800 nM throughout. For the same compound, the “Cell based ATP assay AC50” value on wild type PKR [2] is given as “No Fit”.
For the compound `Cc1cccc(Cc2nc3c(s2)c2cnn(Cc4cccc5[nH]ncc45)c(=O)c2n3C)n1` [Compound 159], the AC50 on wild type PKR [1] is < 300 nM; at wild type PKR [2], ≤ 1000 nM; on PKR K410E it was < 300 nM; on PKR R510Q, < 300 nM.
As to `Cn1c2nc(Cc3nccs3)sc2c2cnn(Cc3cccc4[nH]ncc34)c(=O)c21` [Compound 222], the EC50 at wild type PKR [1] is < 300 nM; at wild type PKR [2] it was ≤ 1000 nM; at PKR K410E, < 300 nM; at PKR R510Q, < 300 nM.
Regarding `Cn1c2nc(Cn3ccnc3)sc2c2cnn(Cc3cccc4[nH]ncc34)c(=O)c21` [Compound 277], the EC50 at wild type PKR [1] was > 800 nM; on wild type PKR [2], > 1000 nM; on PKR K410E, 301 to 800 nM; at PKR R510Q, > 800 nM.
Turning to `Cn1c2nc(Cc3cc[nH]n3)sc2c2cnn(Cc3cccc(C(N)=O)c3)c(=O)c21` [Compound 183], the AC50 on wild type PKR [1] is < 300 nM; at wild type PKR [2], ≤ 1000 nM; on PKR K410E, < 300 nM; on PKR R510Q it was < 300 nM.
For the compound `Cn1c2nc(Cc3cscn3)sc2c2cnn(Cc3ccccc3)c(=O)c21` [Compound 270], the EC50 at wild type PKR [1] was < 300 nM; at wild type PKR [2] it was ≤ 1000 nM; at PKR K410E, < 300 nM; at PKR R510Q, < 300 nM.
Take `Cn1c2nc(Cc3cccc(S(N)(=O)=O)c3)sc2c2cnn(Cc3cccc4[nH]ncc34)c(=O)c21` [Compound 155]: the AC50 on wild type PKR [1] was 301 to 800 nM; on wild type PKR [2] it was ≤ 1000 nM; at PKR K410E it was < 300 nM; on PKR R510Q it was < 300 nM.
As to `Cn1c2nc(Cc3cccc4[nH]nnc34)sc2c2cnn(Cc3cccc4[nH]ncc34)c(=O)c21` [Compound 225], the EC50 on wild type PKR [1] is < 300 nM; at wild type PKR [2] it was ≤ 1000 nM; at PKR K410E it was < 300 nM; at PKR R510Q it was < 300 nM.
In the case of `Cn1c2nc(Cc3cc[nH]n3)sc2c2cnn(Cc3cccc4[nH]cnc34)c(=O)c21` [Compound 278], the EC50 at wild type PKR [1] is < 300 nM; at wild type PKR [2], ≤ 1000 nM; at PKR K410E it was < 300 nM; on PKR R510Q it was < 300 nM.
`Cn1c2nc(Cc3cc[nH]n3)sc2c2cnn(CC3CCCCC3)c(=O)c21` [Compound 397]: the EC50 at wild type PKR [1], on PKR K410E and on PKR R510Q was > 800 nM each time. The “Cell based ATP assay” value on wild type PKR [2] is listed as “No Fit”.
As to `O=c1c2c(cnn1Cc1ccccc1)c1sc(Cc3ccccn3)nc1n2-c1nccs1` [Compound 411], the EC50 at wild type PKR [1], on PKR K410E and at PKR R510Q was > 800 nM throughout. Besides, the “Cell based ATP assay” value at wild type PKR [2] was “No Fit”.
As for `Cn1c2nc(C(N)=O)sc2c2cnn(Cc3cccc4[nH]ncc34)c(=O)c21` [Compound 82], the AC50 on wild type PKR [1] is < 300 nM; on wild type PKR [2], > 1000 nM; on PKR K410E it was 301 to 800 nM; at PKR R510Q it was 301 to 800 nM.
With `CNc1ccc(Cn2ncc3c4sc(C)nc4n(C)c3c2=O)cc1` [Compound 69], the AC50 on wild type PKR [1] was > 800 nM; at wild type PKR [2], > 1000 nM; on PKR K410E, > 800 nM; at PKR R510Q it was 301 to 800 nM.
As for `Cn1c2nc(C(O)c3ccccc3)sc2c2cnn(Cc3cccc4[nH]ncc34)c(=O)c21` (centres unmarked) [Compound 117], the AC50 at wild type PKR [1] was < 300 nM; at wild type PKR [2], > 1000 nM; at PKR K410E, < 300 nM; on PKR R510Q, 301 to 800 nM.
Turning to `Cn1c2nc(Cc3n[nH]cc3F)sc2c2cnn(Cc3ccccc3)c(=O)c21` [Compound 382], the EC50 is < 300 nM at wild type PKR [1], ≤ 1000 nM on wild type PKR [2], < 300 nM on PKR K410E and < 300 nM on PKR R510Q.
With `Cn1c2nc(Cc3cccc(=O)[nH]3)sc2c2cnn(Cc3cccc4[nH]ncc34)c(=O)c21` [Compound 170], the AC50 on wild type PKR [1] was < 300 nM; at wild type PKR [2], ≤ 1000 nM; on PKR K410E, < 300 nM; at PKR R510Q, < 300 nM.
On to `Cn1c2nc(Cn3cccn3)sc2c2cnn(Cc3cccc4[nH]ncc34)c(=O)c21` [Compound 292], for which the EC50 is < 300 nM at wild type PKR [1], ≤ 1000 nM at wild type PKR [2], < 300 nM at PKR K410E and < 300 nM on PKR R510Q.
With `Cn1c2nc(Cc3cc[nH]n3)sc2c2cnn(Cc3ccc(C#N)cc3)c(=O)c21` [Compound 175], the AC50 at wild type PKR [1] was < 300 nM; at wild type PKR [2], ≤ 1000 nM; at PKR K410E, < 300 nM; at PKR R510Q, < 300 nM.
As for `Cn1c2nc(Cc3cc[nH]n3)sc2c2cnn(Cc3cccc4sc(N)nc34)c(=O)c21` [Compound 235], the EC50 is < 300 nM at wild type PKR [1], ≤ 1000 nM on wild type PKR [2], < 300 nM on PKR K410E and < 300 nM on PKR R510Q.
On to `Cn1c2nc(Cc3cc[nH]n3)sc2c2cnn(Cc3ccc4[nH]ncc4n3)c(=O)c21` [Compound 280], for which the EC50 on wild type PKR [1] was < 300 nM; at wild type PKR [2], ≤ 1000 nM; at PKR K410E, < 300 nM; on PKR R510Q, < 300 nM.
On to `COc1ccc(Cn2ncc3c4sc(Cc5cc[nH]n5)nc4n(C)c3c2=O)cc1` [Compound 123], for which the AC50 at wild type PKR [1] was < 300 nM; on wild type PKR [2] it was ≤ 1000 nM; on PKR K410E, < 300 nM; on PKR R510Q it was < 300 nM.
For `Cn1c2nc(Cc3cc[nH]n3)sc2c2cnn(Cc3ccc(C(N)=O)cc3)c(=O)c21` [Compound 176], the AC50 at wild type PKR [1] is > 800 nM; at wild type PKR [2] it was > 1000 nM; on PKR K410E, > 800 nM; at PKR R510Q, > 800 nM.
Consider `Cn1c2nc(C(N)=O)sc2c2cnn(Cc3csc(N)n3)c(=O)c21` [Compound 146], for which the AC50 on wild type PKR [1] is 301 to 800 nM; on wild type PKR [2], ≤ 1000 nM; at PKR K410E, < 300 nM; on PKR R510Q it was 301 to 800 nM.
Take `Cn1c2nc(C(c3cccc4[nH]ncc34)S(=O)(=O)c3ccccc3)sc2c2cnn(Cc3cccc4[nH]ncc34)c(=O)c21` (centres unmarked) [Compound 133]: the AC50 on wild type PKR [1] is > 800 nM; on wild type PKR [2], > 1000 nM; at PKR K410E, > 800 nM; at PKR R510Q, > 800 nM.
Regarding `CC(=O)c1cccc(Cn2ncc3c4sc([S+](C)[O-])nc4n(C)c3c2=O)c1` (centres unmarked) [Compound 86], the AC50 is < 300 nM on wild type PKR [1], > 1000 nM on wild type PKR [2], > 800 nM at PKR K410E and > 800 nM on PKR R510Q.
As for `COc1ncc(Cc2nc3c(s2)c2cnn(Cc4cccc5[nH]ncc45)c(=O)c2n3C)cn1` [Compound 207], the EC50 was 301 to 800 nM on wild type PKR [1], ≤ 1000 nM at wild type PKR [2], 301 to 800 nM at PKR K410E and > 800 nM at PKR R510Q.
